The values that follow come from patent US11634666B2, “Methods for spore removal comprising a polysorbate surfactant and cationic antimicrobial mixture” (3M INNOVATIVE PROPERTIES COMPANY, priority 2015, dated 2023).

This test concerns C. sporogenes spores ATCC 3584. The test is described as follows: In-vitro experiment to evaluate ability of test formulations to remove spores from skin like surfaces (Vitro-Skin, finger bag collection method). The following applies: for log reduction of spores (in words): higher concentrations (1%). The text has this:
The in-vitro method was designed to evaluate the removal of microbes from skin using a synthetic skin material from the cosmetic industry, Vitro-skin from IMS inc, Portland METhis method enables rapid screening of formulations for their propensity to promote release of microbes from skin and may be predictive of in-vivo activity.
The following materials were utilized. C. sporogenes spores ATCC 3584˜1.0×10^8 CFU/ml; Triton-X 100 sampling buffer (pH 7.4) Filter Sterilized: 0.4 g KH2PO4, 10.1 g Na2HPO4, 1 g Triton-X 100, and 1 L dH2O; D/E neutralizing broth; Fingers from disposable polyethylene gloves (VWR 32915-268); Sterile dH2O (WFI quality water); 3M AC Petrifilm; and 5 ml Falcon tubes; 1.5 ml EPI Centrifuge tubes; Petri Dishes; Vitro-Skin IMS Inc.; and double-sided tape.
The method included the following. Punched-out specified number of Vitro-Skin samples using the ¾″ punch. Attached punch-out Vitro-Skin samples to a Petri-dish or any other sterile flat surface using double-sided tape. Contaminated the Vitro-Skin samples accordingly with 10 μl of spores/spore prep (˜1×10^6 CFU/Sample). Used the pipette tip to spread spores over the surface and used a new pipette tip for each sample. Allowed the samples to dry (˜40 minutes). Placed three samples directly into separate finger bags containing 3 ml of triton-x 100 sampling solution or D/E neutralizing broth if one of the samples going to be tested contains antimicrobials. Used the “Finger bag collection method” below for each of the three recovery controls.
The Finger bag collection method was carried out as follows. First, a finger bag was cut from disposable gloves.
For the controls: Filled the finger bag with 3 ml of sampling solution. Placed contaminated Vitro-Skin sample into the finger bag containing sampling solution. Massaged finger bag for 1 minute using thumb and index finger. Removed aliquot of fluid from the finger bag and place into an appropriately labeled 1.5 ml centrifuge tube.
For the tested samples: Placed contaminated Vitro-Skin sample into a finger bag containing 3 ml of appropriate test solution. Massage in finger bag for 20 seconds. Removed the Vitro-Skin sample from the finger bag and place into a new finger bag containing 3 ml of sampling solution (Triton x-100 glove juice buffer or D/E neutralizing broth). Collected sample by using the finger bag collection method noted above. Repeat “Placed contaminated vitro-skin sample . . . ” to “Collected sample . . . ” for each of the test solutions.
For best statistical data each test solution was repeated 3 times. Heat treated appropriately labeled 1.5 ml centrifuge tubes containing aliquots of solution for 20 min at 80 C. Serially diluted samples in butterfield's buffer and plate 10^-1 to 10^-4 dilution on AC Petrifilm. Heat shocked, diluted, and plated spore stock day of experiment. Incubated Petrifilm in an anaerobic chamber at 37 C for 20-24 hours. Counted plates and analyzed data.

[1] abbreviates: Example 3, added to water, all concentrations.

As for `Cc1cc(O)cc(C)c1Cl` [PCMX, 4-chloro-3,5-dimethylphenol], where the note is “Example 3”, the “log reduction of spores (in words)” value is given as “good log reduction of spores”.

As to `Oc1cc(Cl)ccc1Oc1ccc(Cl)cc1Cl` [Triclosan, 5-chloro-2-(2,4-dichlorophenoxy)phenol], the “log reduction of spores (in words)” value (Example 3) was “good log reduction of spores”.

Regarding `N=C(NCCCCCCNC(=N)NC(=N)Nc1ccc(Cl)cc1)NC(=N)Nc1ccc(Cl)cc1.O=C(O)[C@H](O)[C@@H](O)[C@H](O)[C@H](O)CO.O=C(O)[C@H](O)[C@@H](O)[C@H](O)[C@H](O)CO` [chlorhexidine gluconate, Chlorhexidine gluconate], the “spore removal (in words)” value was “poor spore removal” under setting [1] and “poor spore removal” (Example 6, Tables 6a/6b).

For the compound benzalkonium chloride, the “spore removal (in words)” value under setting [1] was “poor spore removal”.

Take `CCCCCCCCN=c1ccn(CCCCCCCCCCn2ccc(=NCCCCCCCC)cc2)cc1.Cl.Cl` [octinidine, N,N′-(decane-1,10-diyldipyridin-1-yl-4-ylidene)dioctan-1-amine dihydrochloride]: where the note is “Example 3, higher concentration”, the “spore removal (in words)” value is recorded as “unaffected”.
